{"source": "paper PMC9858543", "about": "“Design, synthesis and evaluation of 2, 6, 8-substituted Imidazopyridine derivatives as potent PI3Kα inhibitors” (Journal of Enzyme Inhibition and Medicinal Chemistry, 2023)", "key": {"MCF-7": {"system": "MCF-7", "assay": "Cell proliferation assay (CellTiter-Glo), MCF-7", "assay_type": "cell-based", "conditions": "Homo sapiens, MCF7; 72 h exposure; mean ± SD of two experiments", "description": "(§1) Given the desirable enzyme activity profile, these compounds were further assayed for their antiproliferative activities against five independent human tumour cell line collections harbouring PIK3CA mutation, including human ovarian cancer cell line SKOV-3, human breast cancer T47D and MCF-7, human lung cancer H1975 and H460. […] In general, the cellular activity of tested derivatives corrected with their effects on kinase activity.\n(§2) All target compounds were evaluated for antiproliferative potency against SKOV-3, T47D,NCI-H1975, NCI-H460,and MCF-7 tumour cell lines using a CellTiter-Glo® Luminescent Cell Viability Assay. The human tumour cell lines used were obtained from the ATCC or Shanghai ZhongQiaoXinZhou Biotech. All the mediums and FBS were Gibco. T47D, H1975 and NCI-H460 tumour cells were cultured in RPMI1640 medium supplemented with 10% FBS. SKOV-3 was cultured in McCoy’s 5 A medium supplemented with 10%FBS. The day before treatment with compounds, cells were seeded at a density of 2000 or 5000 in each well of a 96-well plate. The tumour cells were then treated with 3-fold serial diluted compound or DMSO control in the incubator at 37 °C and 5% CO2 for 3 days, prior to the addition of CellTiter-Glo reagents (Promega) and reading of luminescence using a PerkinElmer Envision plate reader. Data were analysed using GraphPad Prism 7.0."}, "NCI-H1975": {"system": "NCI-H1975", "assay": "Cell proliferation assay (CellTiter-Glo), NCI-H1975", "assay_type": "cell-based", "conditions": "Homo sapiens, 72 h exposure, mean ± SD of two experiments", "description": "as §1, §2"}, "CYP2C19": {"biological_target": "T1, CYP2C19 (Homo sapiens, UniProt P33261)", "T1 construct": "tissue Lot No. 38292; host or cells: human liver microsomes", "assay": "CYP450 inhibition assay in human liver microsomes", "assay_type": "in vitro ADME", "conditions": "10 μM", "description": "(§3) Cytochrome P450 inhibition was evaluated in human liver microsomes (0.253 mg/mL, Lot No. 38292) using five specific probe substrates (CYP1A2, 10 μM phenacetin; CYP2D6, 5 μM dextromethorphan; and CYP3A4, 2 μM midazolam; 2C9, 5 μM Diclofenac; 2C19, 30 μM S-mephenytoin) and positive control in the presence of multiple concentrations of the test compound. After pre-warm at 37 °C for 10 min, the reaction was initiated by the addition of NADPH. The mixture was incubated at 37 °C for 10 min, terminated by the addition of cold stop solution (200 ng/mL tolbutamide and 200 ng/mL labetalol in acetonitrile). The samples were centrifuged, and the supernatants were analysed by LC − MS/MS."}, "CYP3A4": {"biological_target": "T2, CYP3A4 (Homo sapiens, UniProt P08684)", "T2 construct": "tissue Lot No. 38292; host or cells: human liver microsomes", "assay": "CYP450 inhibition assay in human liver microsomes", "assay_type": "in vitro ADME", "conditions": "10 μM", "description": "as §3"}, "T47D cells": {"system": "T47D cells", "assay": "Apoptosis analysis, annexin V/7-AAD flow cytometry", "assay_type": "cell-based, human", "conditions": "50 μM, 24 h", "description": "Considering compound 35 was most sensitive in T47D cells, we decided to get some mechanistic insight into the mode of action in T47D cell line. As such, the annexin V/7-AAD staining and cell cycle phase distribution have been carried out. […] Furthermore, T47D cells were also treated with different concentrations of 35, and the percentage of apoptotic cells was measured.\nFor cell cycle analysis, T47D cell (1 × 10^6) were seeded in 6-well plates overnight and treated with different concentrations of compound 35 and DMSO control on the next day. After 24 h, the cells were collected by EDTA-free trypsinization, centrifuged at 1500 rpm for 5 min, and fixed in 75% ethanol at −20 °C for 1 h. The cells were then centrifuged at 2000 rpm for 5 min, resuspended in 500 µL PI/Rnase Staining Buffer, incubated for 30 min at room temperature, and analysed using flow cytometry. The data were analysed using Modfit software. For cell apoptosis analysis, T47D cell were seeded in 6 well-plates and treated with DMSO or compound 35 for 24 h. The treated cells were collected and washed with cold PBS for three times, resuspended in 185 µL binding buffer containing 5 μL Annexin V-FITC Apoptosis Detection Kit and 10 μL 7-AAD Viability Staining Solution for 15 min at room temperature in the dark. Apoptotic cells were analysed by flow cytometer."}, "[1]": {"assay": "Liver microsomal stability assay, HLM", "assay_type": "in vitro ADME, human", "description": "The metabolic stability of compound 35 was determined in human or SD rat liver microsomes, with and without the NADPH regenerating system. Briefly, compound 35 was incubated with microsomes (human microsome, CORNING, lot No. 38296; rat microsome, Xenotech, Lot No. 2110178) (0.5 mg protein/mL) at 1 μM at 37 °C in potassium phosphate buffer (100 mM at pH 7.4 with 10 mM MgCl2). The reactions were initiated by adding prewarmed cofactors (1 mmol NADPH). After incubation for different times (0, 5, 10, 20, 30, and 60 min) at 37 °C, cold acetonitrile containing 200 ng/mL tolbutamide and 200 ng/mL labetalol as internal standards was added to precipitate the protein. Then, the samples were centrifuged, and the supernatants were transferred into HPLC water, mixed by plate shaker for 10 min prior to LC − MS/MS analysis."}, "NCI-H460": {"system": "NCI-H460", "assay": "Cell proliferation assay (CellTiter-Glo), NCI-H460", "assay_type": "cell-based", "conditions": "Homo sapiens, 72 h exposure, mean ± SD of two experiments", "description": "as §1, §2"}, "PI3Kα": {"biological_target": "T3, PI3Kα (Homo sapiens, UniProt P42336)", "T3 construct": "purchased Invitrogen", "assay": "In vitro PI3Kα enzymatic assay (ADP-Glo / Kinase-Glo, ATP 25 μM)", "assay_type": "biochemical", "conditions": "ATP 25 μM", "description": "To screen the inhibitory activity of the target compounds against PI3Kα, the Kinase-Glo™ assay with ATP at 25 μM was utilised with PIK-75 as positive control. We chose to explore the SARs at three positions on the Imidazo[1,2-a]pyridine core. To start with, a set of 8-position modifications were prepared while keeping the morpholinyl amide substituent on 2-position fixed, since it allowed quick structure − activity profiling via coupling reactions of bromide with aryl borates or boronic acids. […] We then turned our attention back to the phenyl substituents.\nBriefly, the compound, PI3K enzyme (PI3Kα from Invitrogen), the PIP2 (Life Technologies) substrate, and ATP (25 μM, Sigma) were diluted in kinase buffer to the indicated concentrations. The assay plate was covered and incubated at room temperature for 1 h. Then, the Kinase-Glo reagent (Promega) was added to the PI3Kα plate to stop the reaction, mixed briefly with centrifuge, shaken slowly on the shaker and then equilibrate for 120 min. Finally, add Kinase detection reagent to each well, shake 1 min, equilibrate for 30 min before reading on a plate reader for luminescence. The data were collected on Envision and presented in Excel. IC50 values were calculated from the inhibition curves."}}, "data": [{"molecule": "COc1ncc(-c2cc(C)cn3cc(C(=O)N4CCCC4)nc23)cc1NS(=O)(=O)c1ccc(F)cc1", "note": "[Compound 35, 4-Fluoro-N-(2-methoxy-5–(6-methyl-2-(pyrrolidine-1-carbonyl)Imidazo[1,2-a]pyridin-8-yl)pyridin-3-yl)benzenesulfonamide]", "values": [{"measurement": "IC50", "setting": "MCF-7", "result": "9.4 ± 0.6", "unit": "µM"}, {"measurement": "IC50", "setting": "NCI-H1975", "result": "32.1 ± 2.4", "unit": "µM"}, {"measurement": "CYP2C19 % inhibition", "setting": "CYP2C19", "result": 25.9, "unit": "%"}, {"measurement": "CYP3A4 % inhibition", "setting": "CYP3A4", "result": 42.6, "unit": "%"}, {"measurement": "Q2 cells (late apoptosis), annexin V/7-AAD", "setting": "T47D cells", "result": 21.8, "unit": "%"}, {"measurement": "Q3 cells (early apoptosis), annexin V/7-AAD", "setting": "T47D cells", "result": 1.51, "unit": "%"}, {"measurement": "Remaining (T = 60min)", "setting": "[1]; 1 μM, 60 min", "result": 42.7, "unit": "%"}, {"measurement": "microsomal CLint at 1 μM", "setting": "[1]; human, human liver microsomes, pH 7.4, 0.5 mg protein/mL, read-out: Metabolic stability CL int", "result": 30.7, "unit": "µL/min/mg"}, {"measurement": "half-life at 1 μM", "setting": "[1]; human, human liver microsomes, pH 7.4, 0.5 mg protein/mL, read-out: Metabolic stability T1/2", "result": 45.1, "unit": "min"}, {"measurement": "IC50", "setting": "NCI-H460", "result": "17.7 ± 2", "unit": "µM"}, {"measurement": "IC50", "setting": "PI3Kα; mean ± SD of two experiments", "result": "0.15 ± 0.02", "unit": "µM"}, {"measurement": "inhibition at 10 µM", "setting": "PI3Kα; PI3Kα, compound 10 μM, mean ± SD of three determinations, read-out: % Inhibition at 10 μM", "result": "> 85", "unit": "%"}]}]}
